Values of other authors in US20240226024A1 (Empros Pharma AB, priority 2021, published 2024).

Legend:
[1] = for Placebo adjusted reduction of body weight: oral administration for 6 months; for Additional weight loss relative to placebo at one year: on average
[2] = not given; remark: listed apart in the source
[3] = for Fraction of the dose absorbed: oral administration

C[C@H]1O[C@H](O[C@H]2[C@H](O)[C@@H](O)[C@@H](O[C@H]3[C@H](O)[C@@H](O)C(O)O[C@@H]3CO)O[C@@H]2CO)[C@H](O)[C@@H](O)[C@@H]1N[C@H]1C=C(CO)[C@@H](O)[C@H](O)[C@H]1O (stereo partly drawn) [acarbose, O-4,6-Dideoxy-4-[[(1S,4R,5S,6S)-4,5,6-trihydroxy-3-(hydroxymethyl)cyclohex-2-enyl]amino]-α-D-glucopyranosyl-(1→4)-O-α-D-gluco-pyranosyl-(1→4)-D-glucopyranose]
Placebo adjusted reduction of body weight [1]: approx. 0.5%

CCCCCCCCCCC[C@@H](C[C@@H]1OC(=O)[C@H]1CCCCCC)OC(=O)[C@H](CC(C)C)NC=O [orlistat, (S)-((S)-1-((2S,3S)-3-Hexyl-4-oxooxetan-2-yl)tridecan-2-yl) 2-formamido-4-methylpentanoate]
Relative weight loss, best case scenario ([1]; conventional dosage form, placebo 6%): 10% | Approximate relative weight loss, conventional dosage form ([1]; conventional dosage forms): 2-3% | Additional weight loss relative to placebo at one year [1]: ~3% | Placebo adjusted reduction of body weight [1]: 2-3% | Solubility in water (in words): practically insoluble in water | Water solubility: less than 0.001 g/ml | log P: 8.5 | Participants who reported faecal incontinence, similar 6-month trial ([2]; 6-month trial): 5% | Patients who complain about GI side-effects in clinical trials ([2]; diarrhea, oily spotting and fecal urgency): ≥ 25% | Participants who reported faecal incontinence, trials of longer duration ([2]; trials of longer duration): approximately 18% | Fraction of the dose absorbed [3]: < 3% | Plasma exposure ([3]; oral, conventional dosage form): < 5 ng/mL

C[C@H]1CNCCc2ccc(Cl)cc21 [lorcaserin]
Decrease of body weight more than placebo ([1]; human, in vivo): about 3.2 kg | Decrease of body weight more than placebo, % of initial body weight ([1]; human, in vivo): about 3.2% | Additional weight loss relative to placebo at one year [1]: ~3%

OCCN1C[C@H](O)[C@@H](O)[C@H](O)[C@H]1CO [Miglitol, miglitol]
Fraction of the dose absorbed [3]: 100%

OCC(CO)N[C@H]1C[C@](O)(CO)[C@@H](O)[C@H](O)[C@H]1O [voglibose]
Fraction of the dose absorbed [3]: only negligibly absorbed
